# In PubChem BioAssay (NCI):
#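 Compound exposure: 48 hours, 5 concentrations, 96-well plates. The concentration for 50% growth inhibition is given as GI50. TGI: total growth inhibition.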
# Assays:
# Experiment in all cases: NCI tumour cell line growth inhibition, 48 h
# SN12C renal = tested on: SN12C renal
# IGROV1 ovarian = tested on: IGROV1 ovarian
# HL-60(TB) leukemia = tested on: HL-60(TB) leukemia
# HCC-2998 colon = tested on: HCC-2998 colon
# 786-0 renal = tested on: 786-0 renal
# SK-MEL-28 melanoma = tested on: SK-MEL-28 melanoma
# HOP-62 NSCLC = tested on: HOP-62 NSCLC
# MCF7 breast = tested on: MCF7 breast
# DU-145 prostate = tested on: DU-145 prostate
# RPMI-8226 leukemia = tested on: RPMI-8226 leukemia
# MDA-MB-231 breast = tested on: MDA-MB-231 breast
# SK-MEL-5 melanoma = tested on: SK-MEL-5 melanoma
# NCI-H23 lung = tested on: NCI-H23 lung
# CAKI-1 renal = tested on: CAKI-1 renal
# RXF 393 renal = tested on: RXF 393 renal
# LOX IMVI melanoma = tested on: LOX IMVI melanoma
# CCRF-CEM leukemia = tested on: CCRF-CEM leukemia
# MDA-N = tested on: MDA-N
# TK-10 renal = tested on: TK-10 renal
# SNB-75 CNS = tested on: SNB-75 CNS
# K-562 leukemia = tested on: K-562 leukemia
# KM12 colon = tested on: KM12 colon
# HCT-15 colon = tested on: HCT-15 colon
# T-47D breast = tested on: T-47D breast
# M14 melanoma = tested on: M14 melanoma
# MALME-3M melanoma = tested on: MALME-3M melanoma
# MOLT-4 leukemia = tested on: MOLT-4 leukemia
# OVCAR-8 ovarian = tested on: OVCAR-8 ovarian
# SF-268 CNS = tested on: SF-268 CNS
# SF-295 CNS = tested on: SF-295 CNS
# EKVX NSCLC = tested on: EKVX NSCLC
# SK-OV-3 ovarian = tested on: SK-OV-3 ovarian
# UACC-62 melanoma = tested on: UACC-62 melanoma
# HT29 colon = tested on: HT29 colon
# A549 NSCLC = tested on: A549 NSCLC
# PC-3 prostate = tested on: PC-3 prostate
# COLO 205 colon = tested on: COLO 205 colon
# SR leukemia = tested on: SR leukemia
# SW-620 colon = tested on: SW-620 colon
# UACC-257 melanoma = tested on: UACC-257 melanoma
# NCI-H226 lung = tested on: NCI-H226 lung
# BT-549 breast = tested on: BT-549 breast
# NCI-H460 lung = tested on: NCI-H460 lung
# SNB-19 CNS = tested on: SNB-19 CNS
# SK-MEL-2 melanoma = tested on: SK-MEL-2 melanoma
# MDA-MB-435 = tested on: MDA-MB-435
# OVCAR-4 ovarian = tested on: OVCAR-4 ovarian
# NCI/ADR-RES ovarian = tested on: NCI/ADR-RES ovarian
# UO-31 renal = tested on: UO-31 renal
# HS 578T breast = tested on: HS 578T breast
# OVCAR-5 ovarian = tested on: OVCAR-5 ovarian
# A498 renal = tested on: A498 renal
# U251 CNS = tested on: U251 CNS
# NCI-H522 lung = tested on: NCI-H522 lung
# SF-539 CNS = tested on: SF-539 CNS
# HOP-92 NSCLC = tested on: HOP-92 NSCLC
# ACHN renal = tested on: ACHN renal
# OVCAR-3 ovarian = tested on: OVCAR-3 ovarian
# HCT-116 colon = tested on: HCT-116 colon
smiles,measurement,setting,value
CCOc1ccc(-c2nc(-c3oc4ccccc4c(=O)c3OC(C)=O)cs2)cc1,TGI,SN12C renal,> 10 µM
same,TGI,IGROV1 ovarian,> 10 µM
same,TGI,HL-60(TB) leukemia,> 10 µM
same,TGI,HCC-2998 colon,> 10 µM
same,TGI,786-0 renal,> 10 µM
same,TGI,SK-MEL-28 melanoma,> 10 µM
same,TGI,HOP-62 NSCLC,> 10 µM
same,TGI,MCF7 breast,> 10 µM
same,TGI,DU-145 prostate,> 10 µM
same,TGI,RPMI-8226 leukemia,> 10 µM
same,TGI,MDA-MB-231 breast,> 10 µM
same,TGI,SK-MEL-5 melanoma,> 10 µM
same,TGI,NCI-H23 lung,> 10 µM
same,TGI,CAKI-1 renal,> 10 µM
same,TGI,RXF 393 renal,7.21 µM
same,TGI,LOX IMVI melanoma,> 10 µM
same,TGI,CCRF-CEM leukemia,> 10 µM
same,TGI,MDA-N,> 10 µM
same,TGI,TK-10 renal,> 10 µM
same,TGI,SNB-75 CNS,> 10 µM
same,TGI,K-562 leukemia,> 10 µM
same,TGI,KM12 colon,> 10 µM
same,TGI,HCT-15 colon,> 10 µM
same,TGI,T-47D breast,> 10 µM
same,TGI,M14 melanoma,> 10 µM
same,TGI,MALME-3M melanoma,> 10 µM
same,TGI,MOLT-4 leukemia,> 10 µM
same,TGI,OVCAR-8 ovarian,> 10 µM
same,TGI,SF-268 CNS,> 10 µM
same,TGI,SF-295 CNS,> 10 µM
same,TGI,EKVX NSCLC,> 10 µM
same,TGI,SK-OV-3 ovarian,> 10 µM
same,TGI,UACC-62 melanoma,> 10 µM
same,TGI,HT29 colon,> 10 µM
same,TGI,A549 NSCLC,> 10 µM
same,TGI,PC-3 prostate,> 10 µM
same,TGI,COLO 205 colon,> 10 µM
same,TGI,SR leukemia,> 10 µM
same,TGI,SW-620 colon,> 10 µM
same,TGI,UACC-257 melanoma,> 10 µM
Cc1ccc(/C(O)=C/C(=O)C(=O)/C=C(\O)c2ccc(C)cc2C)c(C)c1,TGI,SN12C renal,4.88 µM
same,TGI,IGROV1 ovarian,4.42 µM
same,TGI,HL-60(TB) leukemia,0.58 µM
same,TGI,NCI-H226 lung,4.51 µM
same,TGI,BT-549 breast,3.23 µM
same,TGI,HCC-2998 colon,4.09 µM
same,TGI,786-0 renal,4.28 µM
same,TGI,NCI-H460 lung,3.47 µM
same,TGI,SK-MEL-28 melanoma,3.84 µM
same,TGI,HOP-62 NSCLC,3.24 µM
same,TGI,SNB-19 CNS,5.67 µM
same,TGI,MCF7 breast,4.33 µM
same,TGI,DU-145 prostate,5.43 µM
same,TGI,RPMI-8226 leukemia,4.59 µM
same,TGI,MDA-MB-231 breast,4.83 µM
same,TGI,SK-MEL-5 melanoma,3.26 µM
same,TGI,NCI-H23 lung,3.5 µM
same,TGI,SK-MEL-2 melanoma,3.65 µM
same,TGI,MDA-MB-435,3.99 µM
same,TGI,OVCAR-4 ovarian,9.04 µM
same,TGI,NCI/ADR-RES ovarian,4.12 µM
same,TGI,CAKI-1 renal,3.69 µM
same,TGI,RXF 393 renal,4.22 µM
same,TGI,LOX IMVI melanoma,5.96 µM
same,TGI,CCRF-CEM leukemia,3.17 µM
same,TGI,UO-31 renal,3.65 µM
same,TGI,HS 578T breast,5.15 µM
same,TGI,OVCAR-5 ovarian,3.88 µM
same,TGI,A498 renal,4.7 µM
same,TGI,U251 CNS,3.49 µM
same,TGI,NCI-H522 lung,4.53 µM
same,TGI,SF-539 CNS,3.56 µM
same,TGI,TK-10 renal,3.45 µM
same,TGI,SNB-75 CNS,4.19 µM
same,TGI,K-562 leukemia,9.58 µM
same,TGI,KM12 colon,3.44 µM
same,TGI,HCT-15 colon,4.47 µM
same,TGI,T-47D breast,4.46 µM
same,TGI,M14 melanoma,3.27 µM
same,TGI,MALME-3M melanoma,3.45 µM
same,TGI,MOLT-4 leukemia,4.67 µM
same,TGI,OVCAR-8 ovarian,7.63 µM
same,TGI,SF-268 CNS,4.02 µM
same,TGI,SF-295 CNS,3.38 µM
same,TGI,EKVX NSCLC,5.56 µM
same,TGI,HOP-92 NSCLC,8.6 µM
same,TGI,SK-OV-3 ovarian,3.47 µM
same,TGI,UACC-62 melanoma,3.38 µM
same,TGI,ACHN renal,3.65 µM
same,TGI,HT29 colon,> 20.8 µM
same,TGI,A549 NSCLC,4.16 µM
same,TGI,PC-3 prostate,5.64 µM
same,TGI,COLO 205 colon,3.66 µM
same,TGI,SR leukemia,4.8 µM
same,TGI,SW-620 colon,6.88 µM
same,TGI,OVCAR-3 ovarian,3.51 µM
same,TGI,HCT-116 colon,6.58 µM
same,TGI,UACC-257 melanoma,3.21 µM
Cc1cc(N/N=C/c2nc(-c3ccc(Br)cc3)oc2C)c2cc(Br)ccc2n1,GI50,SN12C renal,2.1 µM
same,TGI,SN12C renal,5.36 µM
same,GI50,IGROV1 ovarian,4.55 µM
same,TGI,IGROV1 ovarian,20.2 µM
same,GI50,HL-60(TB) leukemia,2.24 µM
same,TGI,HL-60(TB) leukemia,6.28 µM
same,GI50,NCI-H226 lung,17.9 µM
same,TGI,NCI-H226 lung,48.5 µM
same,GI50,BT-549 breast,10.7 µM
same,TGI,BT-549 breast,23.3 µM
same,GI50,HCC-2998 colon,7.43 µM
same,TGI,HCC-2998 colon,20.8 µM
same,GI50,786-0 renal,1.7 µM
same,TGI,786-0 renal,3.42 µM
same,GI50,SK-MEL-28 melanoma,2.39 µM
same,TGI,SK-MEL-28 melanoma,6.26 µM
same,GI50,HOP-62 NSCLC,2.32 µM
same,TGI,HOP-62 NSCLC,5.84 µM
same,GI50,SNB-19 CNS,3.87 µM
same,TGI,SNB-19 CNS,23.4 µM
same,GI50,MCF7 breast,1.68 µM
same,TGI,MCF7 breast,3.74 µM
same,GI50,DU-145 prostate,3.81 µM
same,TGI,DU-145 prostate,13.9 µM
same,GI50,RPMI-8226 leukemia,2.37 µM
same,TGI,RPMI-8226 leukemia,6.39 µM
same,GI50,MDA-MB-231 breast,2.95 µM
same,TGI,MDA-MB-231 breast,10.1 µM
same,GI50,SK-MEL-5 melanoma,13.4 µM
same,TGI,SK-MEL-5 melanoma,26.1 µM
same,GI50,NCI-H23 lung,6.25 µM
same,TGI,NCI-H23 lung,22.8 µM
same,GI50,SK-MEL-2 melanoma,25.6 µM
same,TGI,SK-MEL-2 melanoma,68.1 µM
same,GI50,MDA-MB-435,2.25 µM
same,TGI,MDA-MB-435,5.34 µM
same,GI50,NCI/ADR-RES ovarian,2.71 µM
same,TGI,NCI/ADR-RES ovarian,9.03 µM
same,GI50,CAKI-1 renal,8.15 µM
same,TGI,CAKI-1 renal,20.6 µM
same,GI50,RXF 393 renal,5 µM
same,TGI,RXF 393 renal,19.8 µM
same,GI50,LOX IMVI melanoma,1.99 µM
same,TGI,LOX IMVI melanoma,4.3 µM
same,GI50,CCRF-CEM leukemia,2 µM
same,TGI,CCRF-CEM leukemia,29.7 µM
same,GI50,UO-31 renal,13.9 µM
same,TGI,UO-31 renal,26.8 µM
same,GI50,HS 578T breast,4.21 µM
same,TGI,HS 578T breast,26.2 µM
same,GI50,OVCAR-5 ovarian,10.7 µM
same,TGI,OVCAR-5 ovarian,22.5 µM
same,GI50,A498 renal,16.5 µM
same,TGI,A498 renal,53.2 µM
same,GI50,U251 CNS,1.94 µM
same,TGI,U251 CNS,3.75 µM
same,GI50,NCI-H522 lung,2.21 µM
same,TGI,NCI-H522 lung,5.62 µM
same,GI50,SF-539 CNS,1.76 µM
same,TGI,SF-539 CNS,3.5 µM
same,GI50,TK-10 renal,1.97 µM
same,TGI,TK-10 renal,3.93 µM
same,GI50,SNB-75 CNS,2.17 µM
same,TGI,SNB-75 CNS,6.66 µM
same,GI50,KM12 colon,2.25 µM
same,TGI,KM12 colon,5.71 µM
same,GI50,HCT-15 colon,2.88 µM
same,TGI,HCT-15 colon,10.2 µM
same,GI50,T-47D breast,1.88 µM
same,TGI,T-47D breast,3.9 µM
same,GI50,M14 melanoma,3.58 µM
same,TGI,M14 melanoma,13.8 µM
same,GI50,MALME-3M melanoma,2.1 µM
same,TGI,MALME-3M melanoma,4.48 µM
same,GI50,MOLT-4 leukemia,2.65 µM
same,TGI,MOLT-4 leukemia,> 100 µM
same,GI50,OVCAR-8 ovarian,2.43 µM
same,TGI,OVCAR-8 ovarian,6.66 µM
same,GI50,SF-268 CNS,6.89 µM
same,TGI,SF-268 CNS,46.2 µM
same,GI50,SF-295 CNS,17.3 µM
same,TGI,SF-295 CNS,32.6 µM
same,GI50,EKVX NSCLC,19.3 µM
same,TGI,EKVX NSCLC,38.5 µM
same,GI50,HOP-92 NSCLC,2.5 µM
same,TGI,HOP-92 NSCLC,14.4 µM
same,GI50,SK-OV-3 ovarian,16.6 µM
same,TGI,SK-OV-3 ovarian,30.2 µM
same,GI50,UACC-62 melanoma,1.91 µM
same,TGI,UACC-62 melanoma,4.58 µM
same,GI50,ACHN renal,2.86 µM
same,TGI,ACHN renal,8.05 µM
same,GI50,HT29 colon,3.14 µM
same,TGI,HT29 colon,13.7 µM
same,GI50,A549 NSCLC,2.2 µM
same,TGI,A549 NSCLC,5.2 µM
same,GI50,PC-3 prostate,2.68 µM
same,TGI,PC-3 prostate,8.75 µM
same,GI50,COLO 205 colon,4.38 µM
same,TGI,COLO 205 colon,22.1 µM
same,GI50,SR leukemia,0.355 µM
same,TGI,SR leukemia,> 100 µM
same,GI50,SW-620 colon,2.04 µM
same,TGI,SW-620 colon,4.81 µM
same,GI50,OVCAR-3 ovarian,2.08 µM
same,TGI,OVCAR-3 ovarian,4.25 µM
same,GI50,HCT-116 colon,3.52 µM
same,TGI,HCT-116 colon,12.2 µM
same,GI50,UACC-257 melanoma,6.9 µM
same,TGI,UACC-257 melanoma,21.9 µM
